The target in assay [1] is T1, wild-type (wt) DHFR from Plasmodium falciparum (Plasmodium falciparum, UniProt P13922, N108S/R59C).
T1 construct: The Dihydrofolate Reductase Domain of Plasmodium falciparum Thymidylate Synthase-Dihydrofolate Reductase; made in house
In words: Inhibition of wild-type pfDHFR (spectrophotometric, Ki).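 Note: Affinity-purified enzyme, initial reaction rates measured across a range of inhibitor concentrations, Ki obtained by nonlinear least-squares fitting.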 It counts as biochemical.
Procedure: (§1) For determination of the Ki values of a number of synthesized analogues, the assay reactions were initiated with affinity-purified enzyme (^˜0.005-0.01 U ml^−1), and the initial velocities in the presence of varying concentrations of inhibitors were analysed by non-linear least square fit using Kaleidagraph™ software.

The target in assay [2] is T2, A16V.S108T mutant (mut) of DHFR from Plasmodium falciparum (Plasmodium falciparum, UniProt A7UD81, A16V/S108T).
T2 construct: The Dihydrofolate Reductase Domain of Plasmodium falciparum Thymidylate Synthase-Dihydrofolate Reductase; made in house
The assay can be described thus: biochemical.
Procedure: as §1

Assay [3] deals with A16V.S108T mutant (mut) of DHFR from Plasmodium falciparum. The assay can be described thus: biochemical. Particulars: resistance factor.
Procedure: as §1
Assay [4] deals with T3, DHFR-TS from Trypanosoma cruzi (Trypanosoma cruzi, UniProt Q27793).
T3 construct: pET 11c with the insertion of the complete ORF of the gene tc-dhfrts; made in house; host or cells: E. coli BL21 (DE3)
In words: Inhibition of T. cruzi DHFR-TS (I50-derived Ki).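 For all read-outs here: enzymes were recombinant T. cruzi DHFR-TS and human DHFR, both expressed in E. coli and purified on a methotrexate affinity column, with dihydrofolate and NADPH as substrates.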 It counts as biochemical. Particulars: for Selectivity: human Ki / T. cruzi Ki.
Procedure: DHFR activity was measured spectrophotometrically by monitoring the decrease in absorbance at 340 mm.
(§2) Inhibition of dihydrofolate reductases by 1,2-dihydro-1,3,5 triazines was analysed with T. cruzi and human DHFR.
(§3) DHFR assays contained 30 mM dihydrofolate, 0.1 mM NADPH, 50 mM TES buffer pH 7, 75 mM 2-mercaptoethanol and specified amounts of inhibitors. The reaction was initiated by addition of 2.8 or 2.3 units of T. cruzi and human, respectively, and monitored at 340 nm.
Selective inhibition of dihydrofolate reductase by 1,2-dihydro-1,3,5-triazines was analysed with T. cruzi and human DHFR. DHFR assays contained 30 μM dihydrofolate, 0.1 mM NADPH, 50 mM TES buffer pH 7, 75 mM β-mercaptoethanol and specified amounts of inhibitors. The reaction was initiated by addition of 2.8 or 2.3 units of T. cruzi and human enzyme, respectively, and monitored at 340 nm.
KiI 50=[I]0.5/((1+[S])/Km)

Assay [5] has as its target T4, human DHFR (Homo sapiens, UniProt P00374).
T4 construct: made in house; host or cells: E. coli M15
T4 sequence (P00374 1-187): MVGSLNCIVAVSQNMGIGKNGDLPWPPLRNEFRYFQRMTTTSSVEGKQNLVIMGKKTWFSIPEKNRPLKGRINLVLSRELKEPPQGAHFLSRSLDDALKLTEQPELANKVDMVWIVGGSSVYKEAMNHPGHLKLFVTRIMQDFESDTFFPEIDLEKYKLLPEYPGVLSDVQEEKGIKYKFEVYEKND
The assay can be described thus: Inhibition of human DHFR (I50-derived Ki).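 Note: recombinant human DHFR expressed in E. coli and purified by methotrexate affinity chromatography, enzyme activity followed spectrophotometrically.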 The assay is classed as biochemical. The settings on record: human DHFR.
Procedure: (§4) Folic acid and NADPH, were purchased from Sigma. Dihydrofolate was prepared from folic acid dithionate reduction. Methotrexate (MTX) was from Lederle Laboratories. MTX sepharose CL-6B was prepared according to the protocol described by Dann. et al. IPTG came from Boehringer Manheim. The expression system used for recombinant human DHFR production, which includes the plasmid PB-E1/RB SII, SphI-HDHFR expressed in E. coli M15, was supplied by Santi, D. V (Department of Biochemistry and Biophysics and Department of Pharmaceutical Chemistry, University of California). Recombinant T. Cruzi DHFR-TS was produced using the system pET 11c with the insertion of the complete ORF of the gene tc-dhfrts. The resulting plasmid was called pET DT.
(§5) Human and T.cruzi DHFR were produced using inducible expression systems. For human DHFR, fresh overnight cultures of E. coli M15, transformed with the plasmid, pB-E1/RB SII, SphI-HDHFR, were grown in LB and 0.1 mg/ml ampicillin medium at 28° C. For T.cruzi DHFR-TS, cultures of E. coli, BL21 (DE3) transformed with the plasmid pETDT system were grown at 37° C. The same purification protocol was used for both systems. When OD600 was at 0.8, cells pellets were collected by centrifugation, suspended in 50 ml of LB medium, containing 0.1 mg/ml of ampicillin. 10 ml of this preinocule was added to 2 litres of LB medium. Cultures were shaken at 28° C. or 37° C. (for human and T. cruzi DHFR respectively) and induction with IPTG ImM was performed when OD600 reached 0.8. After IPTG induction, cells were grown overnight in a shaker at 28° C. or 5 hours at 28° C. or 37° C. (for human and T. cruzi DHFR respectively) and then harvested by centrifugation.
(§6) Cell pellets were suspended in sonication buffer (2× TES DHFR:TES 100 mM, 2-mercaptoethanol 150 mM, EDTA 2 mM pH=7) containing protease inhibitors.
(§7) Crude extract was circulated through the MTX-Sepharose column at 4° C. at a flow rate of 0.2 ml/min until the protein was bound to the resin. The column was washed with an excess of buffer B (KH2PO410 mM pH 7, KC1 1M). Protein was eluted at 0.2 min/ml with an elution buffer (100 mM TES, 10 mM DTT, 2 mM EDTA, DHF 8.5 mM), the elution profile was collected in 1 ml fractions using a Pharmacia LKB Frac 200 collector. Finally, the protein was desalted using molecular size exclusion chromatography in a Pharmacia G-25 column. Fractions containing DHFR activity were pooled and concentrated by ultrafiltration using centripreps Amicon.
(§8) The purity of the protein preparation was assessed by detection of a single band of the correct molecular weight stained with coomasie blue following a 12% SDS-PAGE. Protein concentration was determined by the method of Bradford using a BSA as a standard. DHFR activity was measured spectrophotometrically by monitoring the decrease in absorbance at 340 mm. […] One unit of enzyme, is defined as the amount of enzyme which produces 1 nmol of product per min using ε of 12300M^−1 at 340 nm.
as §2, §3
(§9) Selective inhibition of dihydrofolate reductase by 1,2-dihydro-1,3,5-triazines was analysed with T. cruzi and human DHFR. DHFR assays contained 30 μM dihydrofolate, 0.1 mM NADPH, 50 mM TES buffer pH 7, 75 mM β-mercaptoethanol and specified amounts of inhibitors. The reaction was initiated by addition of 2.8 or 2.3 units of T. cruzi and human enzyme, respectively, and monitored at 340 nm. […] KiI 50=[I]0.5/((1+[S])/Km)

Assay [6] concerns wild-type (TM4/8.2) strain of P. falciparum. The assay can be described thus: microbe, parasite or virus in culture. Particulars: Plasmodium falciparum; wild-type strain TM4/8.2. The assay is classed as cell-based, Plasmodium falciparum. How it is done: Mol. Biochem. Parasitol. […] Science, 1976, 193, 673-675]. In vitro antimalarial activity was determined by using [^3H]-hypoxanthine incorporation method [Desjardins, R. E.; Canfield, C. J.; Haynes, J. D.; Chulay, J. D. Quantitative assessment of antimalarial activity in vitro by a semiautomated microdilution technique. Antimicrob Agents Chemother. 1979, 16, 710-718]. The drugs were initially dissolved in DMSO and diluted with the culture media. Aliquots (25 μl) of drug solution of different concentrations was placed in 96-well plate together with 200 μl of 1.5% cell suspension of parasitized erythrocytes containing 1-2% parasitemia. Final concentration of DMSO was 0.1% where there was no effect on the parasite growth. The mixtures were incubated in a 3% CO2 incubator at 37° C. After 24 h of incubation, 25 μl (0.25 μCi) of [^3H]-hypoxanthine were added to each well. The mixtures were further incubated under the same condition for 18-24 h. DNA of parasites was harvested onto glass filter paper (Unifilter, Packard, USA). The filters were dried and liquid scintillation fluid was added for radioactivity measurement in a 6-probe liquid scintillation-counter (Packard, USA).

Assay [7] concerns the target human DHFR. The assay can be described thus: Inhibition of human DHFR (I50-derived Ki).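 Note: recombinant human DHFR expressed in E. coli and purified by methotrexate affinity chromatography, enzyme activity followed spectrophotometrically.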 It counts as biochemical.
Procedure: as §4, §5, §6, §7, §8, §2, §3, §9

Where a name gives a salt, the structure may show the parent alone. Read-outs that look alike come from different tables or passages of the source. Where only a bound is given, the exact number is not on record here.

T1 sequence (P13922 10-228 R59C/N108S): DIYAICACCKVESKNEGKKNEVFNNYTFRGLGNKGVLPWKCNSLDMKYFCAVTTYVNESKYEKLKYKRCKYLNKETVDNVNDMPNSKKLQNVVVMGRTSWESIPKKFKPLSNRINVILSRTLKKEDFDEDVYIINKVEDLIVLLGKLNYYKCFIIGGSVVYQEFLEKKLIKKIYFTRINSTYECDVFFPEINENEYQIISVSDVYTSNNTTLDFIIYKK
T3 sequence (Q27793 whole entry): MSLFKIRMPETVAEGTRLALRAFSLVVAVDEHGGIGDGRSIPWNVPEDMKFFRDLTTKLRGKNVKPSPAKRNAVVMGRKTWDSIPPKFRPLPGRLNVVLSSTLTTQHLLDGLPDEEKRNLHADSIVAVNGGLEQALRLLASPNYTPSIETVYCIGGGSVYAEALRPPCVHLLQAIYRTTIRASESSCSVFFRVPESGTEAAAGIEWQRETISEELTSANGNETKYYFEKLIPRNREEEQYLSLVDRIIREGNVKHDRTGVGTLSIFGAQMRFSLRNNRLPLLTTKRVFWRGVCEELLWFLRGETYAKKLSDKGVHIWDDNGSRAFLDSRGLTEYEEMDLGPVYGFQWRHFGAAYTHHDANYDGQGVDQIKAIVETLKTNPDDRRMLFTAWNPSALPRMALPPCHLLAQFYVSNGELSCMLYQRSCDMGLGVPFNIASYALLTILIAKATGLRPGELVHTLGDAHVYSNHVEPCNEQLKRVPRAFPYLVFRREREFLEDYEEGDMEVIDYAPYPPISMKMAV
T2 sequence (A7UD81 1-231 A16V/S108T): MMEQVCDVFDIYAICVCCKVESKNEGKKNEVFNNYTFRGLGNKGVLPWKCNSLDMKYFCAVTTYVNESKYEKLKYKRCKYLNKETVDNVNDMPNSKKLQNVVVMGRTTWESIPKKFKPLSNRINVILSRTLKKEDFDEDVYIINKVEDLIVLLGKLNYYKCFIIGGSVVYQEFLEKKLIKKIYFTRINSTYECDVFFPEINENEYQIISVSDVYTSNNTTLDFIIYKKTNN

Broadly, the Ki is the equilibrium dissociation constant of an inhibitor or competing ligand from its target. Take `NC1=NC(c2cccc(OCc3ccccc3)c2)N(c2cccc(OCc3ccccc3)c2)C(N)=N1` (stereo not shown) [R2=3-BnOC6H4, X=H, Y=BnO, 1-m-benzyloxyphenyl-2-m-benzyloxyphenyl-4,6-diamino-1,2-dihydro-1,3,5-triazine]: the Ki was 4.3 ± 0.2 nM in assay [1] (Ki(wt) nM), 0.0072 ± 0.001 µM in assay [2], 0.128 µM in assay [4] and 2130 nM on human DHFR [5] (Human Ki (I50)(nM)). Also, in assay [3], the “Ki(mut)/Ki(wt)” value is given as 1.7. Moreover, the Selectivity in assay [4] is reported as 16.6.
As usually defined, the IC50 is the concentration needed to halve the response being measured. A low value points to greater potency in that assay. `COc1cccc(C2N=C(N)N=C(N)N2c2ccc(Cl)cc2)c1` (stereo not shown) [(Ia) R2=m-methoxyphenyl]: the Ki worked out at 10.4 ± 1.4 nM in assay [1] (Ki(wt) nM) and 0.0628 ± 0.0024 µM in assay [2]. The “Ki(mut)/Ki(wt)” value in assay [3] worked out at 6.0. The compound also had an IC50 in assay [6] of 0.577 µM.
The corresponding values for `NC1=NC(c2cccc(Oc3ccccc3)c2)N(c2ccc(Cl)c(Cl)c2)C(N)=N1` (stereo not shown) [(Ic) R2=3-phenoxyphenyl] are 1.9 ± 0.3 nM, 0.0052 ± 0.0006 µM, 2.7 and 0.33 µM.
With `COc1cc(C2N=C(N)N=C(N)N2c2cccc(Cl)c2)cc(OC)c1OC` (stereo not shown) [(Ib) R2=3,4,5-trimethoxyphenyl], the Ki was 960 ± 79 nM in assay [1] (Ki(wt) nM) and 1.01 ± 0.027 µM in assay [2]. Besides, the “Ki(mut)/Ki(wt)” value in assay [3] came to 1.0. Moreover, the IC50 in assay [6] was greater than 50 µM.
As for `NC1=NC(c2cccc(Oc3ccc(Cl)cc3)c2)N(c2ccc(Cl)cc2)C(N)=N1` (stereo not shown) [(Ia) R2=3-(4-chlorophenoxy)phenyl], the Ki was 1.4 ± 0.3 nM in assay [1] (Ki(wt) nM) and 0.0075 µM in assay [2]. Moreover, the “Ki(mut)/Ki(wt)” value in assay [3] was determined as 5.3. In addition, it took 2.85 µM to reach half-maximal inhibition in assay [6] (IC50).
Consider `COc1cc(OC)cc(C2N=C(N)N=C(N)N2c2ccc(Cl)cc2)c1` (stereo not shown) [(Ia) R2=3,5-dimethoxyphenyl], for which the Ki stood at 38.3 ± 8 nM in assay [1] (Ki(wt) nM), 0.1 ± 0.007 µM in assay [2], 0.2 µM in assay [4] and 25800 nM on human DHFR [5] (Human Ki (I50)(nM)). Further, in assay [3], the “Ki(mut)/Ki(wt)” value stood at 2.6. In assay [6], the IC50 was determined as 3.25 µM. Moreover, the Selectivity in assay [4] is 129.
Turning to `COc1ccc(C2N=C(N)N=C(N)N2c2ccc(Cl)cc2)cc1OC` (stereo not shown) [(Ia) R2=3,4-dimethoxyphenyl], the Ki in assay [1] (Ki(wt) nM) was 32.7 ± 2 nM; in assay [2], 0.124 ± 0.005 µM; in assay [4], 0.386 µM; on human DHFR [5] (Human Ki (I50)(nM)) it was 25700 nM. In addition, in assay [3], the “Ki(mut)/Ki(wt)” value was determined as 3.8. The compound also gave an IC50 in assay [6] of 2.27 µM. The compound further came in with a Selectivity in assay [4] of 67.
Take `NC1=NC(c2ccc(OCc3cc(F)cc(F)c3)cc2)N(c2cccc(Cl)c2)C(N)=N1` (stereo not shown) [(Ib) R2=4-(3,5-difluorobenzyloxy)phenyl]: the Ki was 4.4 ± 0.4 nM in assay [1] (Ki(wt) nM) and 0.0074 ± 0.0007 µM in assay [2]. Moreover, in assay [3], the “Ki(mut)/Ki(wt)” value was determined as 1.7. Moreover, the IC50 in assay [6] stood at 3.78 µM.
Regarding `CC1(C)N=C(N)N=C(N)N1c1ccc(Cl)cc1` [cycloguanil, Cycloguanil, reference compound], the Ki in assay [1] (read-out: Ki(wt)) was found to be 1.5 nM; in assay [2] it was 1.31 µM; in assay [4] (T. cruzi DHFR-TS, read-out: T. cruzi Ki (I50)), 0.37 µM. The compound further gave an IC50 in assay [6] of 0.04 µM.
Take `N#Cc1ccc(C2N=C(N)N=C(N)N2c2ccc(Cl)cc2)cc1` (stereo not shown) [(Ia) R2=p-cyanophenyl]: the Ki was 11.3 ± 1.4 nM in assay [1] (Ki(wt) nM), 0.205 ± 0.022 µM in assay [2] and 0.65 µM in assay [4]. The compound further came in with an IC50 in assay [6] of 0.804 µM.
On to `NC1=NC(c2cccc(Oc3ccccc3)c2)N(c2cccc(-c3ccccc3)c2)C(N)=N1` (stereo not shown) [1-m-biphenyl-2-m-phenoxyphenyl-4,6-diamino-1,2-dihydro-1,3,5-triazine], for which the Ki in assay [1] (Ki(wt) nM) amounted to 2 nM; in assay [2] it was 0.0048 ± 0.0009 µM. For the same compound, in assay [3], the “Ki(mut)/Ki(wt)” value is reported as 2.2.
For `NC1=NC(c2ccccc2)N(c2ccc(Cl)c(Cl)c2)C(N)=N1` (stereo not shown) [(Ic) R2=Ph, 1-(3′,4′-Dichlorophenyl)-2-phenyl-4,6-diamino-1,2-dihydro-1,3,5-triazine hydrochloride], the IC50 in assay [6] was 0.026 µM.
As for `Cl.NC1=NC(c2ccccc2)N(c2cccc(Cl)c2)C(N)=N1` (stereo not shown) [(Ib) R2=phenyl, 1-(3′-Chlorophenyl)-2-phenyl-4,6-diamino-1,2-dihydro-1,3,5-triazine hydrochloride], the Ki stood at 11.7 ± 2.5 nM in assay [1] (Ki(wt) nM) and 0.01 ± 0.007 µM in assay [2]. In addition, the “Ki(mut)/Ki(wt)” value in assay [3] turned out to be 0.9. Besides, the IC50 in assay [6] worked out at 0.565 µM.
The corresponding values for `COc1ccc(C2N=C(N)N=C(N)N2c2cccc(Cl)c2)cc1` (stereo not shown) [(Ib) R2=4-methoxyphenyl] are 21.8 ± 1 nM, 0.0125 ± 0.0009 µM, 0.6 and 2.56 µM.
As to `NC1=NC(c2cccc(O)c2)N(c2cccc(Cl)c2)C(N)=N1` (stereo not shown) [(Ib) R2=3-hydroxyphenyl], the Ki in assay [1] (Ki(wt) nM) came out at 27.9 ± 4.5 nM; in assay [2], 0.0197 ± 0.0024 µM. The “Ki(mut)/Ki(wt)” value in assay [3] was 0.7. The IC50 in assay [6] is 0.551 µM.
Consider `NC1=NCN(c2ccc(Br)cc2)C(N)=N1` [R2=H, X=Br, Y=H], for which, in assay [4], the affinity, expressed as Ki, was 0.1 µM and the Selectivity amounted to 4.8. Also, the Ki on human DHFR [5] (Human Ki (I50)(nM)) was 480 nM.
As for `NC1=NC(c2ccccc2)N(c2ccc(Cl)cc2)C(N)=N1` (stereo not shown) [(Ia) R2=phenyl, 1-(4′-Chlorophenyl)-2-phenyl-4,6-diamino-1,2-dihydro-1,3,5-triazine hydrochloride], the Ki in assay [2] was determined as 0.0493 ± 0.0033 µM; in assay [4], 0.042 µM; on human DHFR [5] (read-out: Human Ki (I50)), 3870 nM. Further, the IC50 in assay [6] is 0.027 µM.
For `COc1cc(OC)cc(C2N=C(N)N=C(N)N2c2cccc(Cl)c2)c1` (stereo not shown) [(Ib) R2=3,5-dimethoxyphenyl], the Ki was 79.4 ± 7 nM in assay [1] (Ki(wt) nM) and 0.0309 ± 0.003 µM in assay [2]. Moreover, the “Ki(mut)/Ki(wt)” value in assay [3] was 0.4. Besides, in assay [6], the IC50 is greater than 50 µM.
The like results for `COc1ccc(C2N=C(N)N=C(N)N2c2cccc(Cl)c2)cc1OC` (stereo not shown) [(Ib) R2=3,4-dimethoxyphenyl] were, in that order, 27.2 ± 2 nM, 0.164 ± 0.006 µM, 6.0 and 6.82 µM.
With `COc1ccc(Oc2cccc(C3N=C(N)N=C(N)N3c3ccc(Cl)c(Cl)c3)c2)cc1` (stereo not shown) [(Ic) R2=3-(4-methoxyphenoxy)phenyl], the results for the Ki in assay [1] (Ki(wt) nM) and in assay [2] were 1.9 ± 0.3 nM and 0.0074 ± 0.0008 µM, respectively. Besides, the “Ki(mut)/Ki(wt)” value in assay [3] is reported as 3.9. The IC50 in assay [6] turned out to be 2.93 µM.
With `CCCOc1ccc(C2N=C(N)N=C(N)N2c2cccc(Cl)c2)cc1` (stereo not shown) [(Ib) R2=4-(n-propyloxy)phenyl], the Ki in assay [2] amounted to 0.0093 ± 0.0006 µM. Half-maximal inhibition in assay [6] (IC50) required 0.248 µM.
As to `NC1=NCN(c2ccc(Cl)c(Cl)c2)C(N)=N1` [(Ic) R2=H], the Ki in assay [1] (Ki(wt) nM) was 5.3 ± 0.7 nM; in assay [2], 0.0436 ± 0.0058 µM; in assay [4], 0.036 µM. For the same compound, the “Ki(mut)/Ki(wt)” value in assay [3] was determined as 8.2. The same compound came in with an IC50 in assay [6] of 0.123 µM. In assay [4], this compound showed a Selectivity of 1.9. Also, the “Ki (human)/Ki (T. cruzi)” value on human DHFR [7] is 0.19.
In the case of `NC1=NC(c2ccc(Br)cc2)N(c2cccc(Cl)c2)C(N)=N1` (stereo not shown) [(Ib) R2=4-bromophenyl], the Ki in assay [1] (Ki(wt) nM) worked out at 27 ± 4.5 nM; in assay [2], 0.0219 ± 0.0025 µM. For the same compound, the “Ki(mut)/Ki(wt)” value in assay [3] was 0.8. This compound also yielded an IC50 in assay [6] of 9.1 µM.
As to `NC1=NC(c2cccc(Oc3cc(Cl)cc(Cl)c3)c2)N(c2cccc(Cl)c2)C(N)=N1` (stereo not shown) [(Ib) R2=3-(3,5-dichlorophenoxy)phenyl], the Ki in assay [1] (Ki(wt) nM) turned out to be 1.8 ± 0.6 nM; in assay [2] it was 0.0047 ± 0.0004 µM. Moreover, the “Ki(mut)/Ki(wt)” value in assay [3] was 2.6. In addition, in assay [6], inhibition was half-maximal at 5.47 µM (IC50).
Turning to `NC1=NC(c2ccc(O)cc2)N(c2ccc(Cl)cc2)C(N)=N1` (stereo not shown) [(Ia) R2=p-hydroxyphenyl], the Ki in assay [1] (Ki(wt) nM) worked out at 11.3 ± 1.7 nM; in assay [2], 0.098 ± 0.01 µM. Also, the “Ki(mut)/Ki(wt)” value in assay [3] is 8.6.

The record behind these values is patent US20030203908A1, “Dihydrofolate reductase inhibitors” (priority 2000, published 2003).
